Results published in patent US9382254B2, “Compounds and pharmaceutical compositions thereof for the treatment of cystic fibrosis” (Galapagos NV, priority 2013, dated 2016).

What was measured:
Format in all cases: cell-based
CFTR G551D mutant = molecular target: T1, CFTR G551D mutant (Homo sapiens, UniProt P13569, G551D); experiment: YFP-halide influx assay for the CFTR-G551D mutation; settings: HEK293 cells, forskolin 10.67 μM
T1 construct: expressed in transfected cells; host or cells: HEK293 (reverse transfection with plasmid)
Outline: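 Channel opening potentiation measured as 1−F/F0, where F is YFP fluorescence 7 s after iodide injection and F0 before; EC50 taken from concentration plot. Cells: HEK293 transiently expressing CFTR G551D plus halide-sensitive YFP (H148Q, I152L, F47L), 24 h at 37 °C, 5% CO2.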

CFTR ΔF508 mutant [1] = molecular target: T2, CFTR ΔF508 mutant (Homo sapiens, UniProt P13569, DEL508-508); experiment: YFP-halide influx assay for the CFTR-ΔF508 mutation (384 well, FDSS/μCell); settings: CFBE41o- cells, CFTR-ΔF508, 1×D-PBS, fluorescence after 36 seconds
T2 construct: expressed in transfected cells; host or cells: CFBE41o- (adenoviral transduction)
Outline: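 Potentiator read-out as 1−F/F0, F taken 36 s after iodide addition, EC50 fitted against compound concentration. Cells: CFBE41o- expressing ΔF508 CFTR plus halide-sensitive YFP via adenovirus, rescued by 27 °C for 24 h or 24 h modulator at 37 °C.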

CFTR ΔF508 mutant [2] = molecular target: T2, CFTR ΔF508 mutant; experiment: YFP-halide influx assay for the CFTR-ΔF508 mutation, gluconate buffer; settings: CFBE41o- cells, forskolin 10.67 μM
Outline: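 Channel opening is read as the fall in YFP fluorescence over 7 s following iodide injection, expressed as 1-F/F0 and plotted versus compound concentration to derive EC50. Cells used were CFBE41o- expressing adenoviral ΔF508 CFTR and halide-sensitive YFP, rescued by 24 h at 27 °C or 24 h modulator treatment at 37 °C.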

T1 sequence (P13569 whole entry G551D): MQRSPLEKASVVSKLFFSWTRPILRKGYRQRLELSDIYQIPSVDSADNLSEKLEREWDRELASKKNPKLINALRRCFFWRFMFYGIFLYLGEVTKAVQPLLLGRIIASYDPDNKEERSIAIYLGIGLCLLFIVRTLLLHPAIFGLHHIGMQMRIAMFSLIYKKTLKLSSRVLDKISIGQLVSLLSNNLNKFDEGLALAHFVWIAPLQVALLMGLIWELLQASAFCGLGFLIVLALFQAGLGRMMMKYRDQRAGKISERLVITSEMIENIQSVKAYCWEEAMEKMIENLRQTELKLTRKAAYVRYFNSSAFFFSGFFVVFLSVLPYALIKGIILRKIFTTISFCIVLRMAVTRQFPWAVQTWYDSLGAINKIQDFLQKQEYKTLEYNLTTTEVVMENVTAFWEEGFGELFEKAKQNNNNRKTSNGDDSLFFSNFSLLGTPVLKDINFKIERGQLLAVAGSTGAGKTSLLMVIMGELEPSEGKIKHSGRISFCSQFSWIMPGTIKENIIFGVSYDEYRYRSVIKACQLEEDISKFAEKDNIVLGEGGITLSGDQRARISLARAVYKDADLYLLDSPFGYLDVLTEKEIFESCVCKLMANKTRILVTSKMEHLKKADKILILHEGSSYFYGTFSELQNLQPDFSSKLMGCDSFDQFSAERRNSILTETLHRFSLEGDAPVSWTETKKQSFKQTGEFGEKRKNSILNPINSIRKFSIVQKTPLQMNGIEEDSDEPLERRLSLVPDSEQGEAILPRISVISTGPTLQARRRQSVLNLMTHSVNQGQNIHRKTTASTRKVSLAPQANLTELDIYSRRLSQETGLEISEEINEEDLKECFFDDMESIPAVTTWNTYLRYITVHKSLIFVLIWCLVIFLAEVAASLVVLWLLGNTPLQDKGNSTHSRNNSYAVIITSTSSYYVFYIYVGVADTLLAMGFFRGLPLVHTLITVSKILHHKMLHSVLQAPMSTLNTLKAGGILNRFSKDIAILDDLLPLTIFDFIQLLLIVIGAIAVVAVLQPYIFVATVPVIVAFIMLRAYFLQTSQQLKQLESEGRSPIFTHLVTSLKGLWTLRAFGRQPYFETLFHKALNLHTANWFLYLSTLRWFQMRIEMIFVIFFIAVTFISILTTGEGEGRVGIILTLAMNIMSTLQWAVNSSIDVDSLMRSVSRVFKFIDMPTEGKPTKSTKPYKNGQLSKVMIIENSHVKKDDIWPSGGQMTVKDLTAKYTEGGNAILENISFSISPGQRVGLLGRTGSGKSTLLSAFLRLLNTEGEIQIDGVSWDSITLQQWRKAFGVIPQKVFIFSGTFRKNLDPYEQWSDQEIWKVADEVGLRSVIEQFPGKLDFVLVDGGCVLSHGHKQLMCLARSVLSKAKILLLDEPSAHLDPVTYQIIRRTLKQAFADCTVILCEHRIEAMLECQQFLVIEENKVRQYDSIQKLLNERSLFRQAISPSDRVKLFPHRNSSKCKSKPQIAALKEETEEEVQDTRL
T2 sequence (P13569 with tags, fused parts or gaps DEL508-508): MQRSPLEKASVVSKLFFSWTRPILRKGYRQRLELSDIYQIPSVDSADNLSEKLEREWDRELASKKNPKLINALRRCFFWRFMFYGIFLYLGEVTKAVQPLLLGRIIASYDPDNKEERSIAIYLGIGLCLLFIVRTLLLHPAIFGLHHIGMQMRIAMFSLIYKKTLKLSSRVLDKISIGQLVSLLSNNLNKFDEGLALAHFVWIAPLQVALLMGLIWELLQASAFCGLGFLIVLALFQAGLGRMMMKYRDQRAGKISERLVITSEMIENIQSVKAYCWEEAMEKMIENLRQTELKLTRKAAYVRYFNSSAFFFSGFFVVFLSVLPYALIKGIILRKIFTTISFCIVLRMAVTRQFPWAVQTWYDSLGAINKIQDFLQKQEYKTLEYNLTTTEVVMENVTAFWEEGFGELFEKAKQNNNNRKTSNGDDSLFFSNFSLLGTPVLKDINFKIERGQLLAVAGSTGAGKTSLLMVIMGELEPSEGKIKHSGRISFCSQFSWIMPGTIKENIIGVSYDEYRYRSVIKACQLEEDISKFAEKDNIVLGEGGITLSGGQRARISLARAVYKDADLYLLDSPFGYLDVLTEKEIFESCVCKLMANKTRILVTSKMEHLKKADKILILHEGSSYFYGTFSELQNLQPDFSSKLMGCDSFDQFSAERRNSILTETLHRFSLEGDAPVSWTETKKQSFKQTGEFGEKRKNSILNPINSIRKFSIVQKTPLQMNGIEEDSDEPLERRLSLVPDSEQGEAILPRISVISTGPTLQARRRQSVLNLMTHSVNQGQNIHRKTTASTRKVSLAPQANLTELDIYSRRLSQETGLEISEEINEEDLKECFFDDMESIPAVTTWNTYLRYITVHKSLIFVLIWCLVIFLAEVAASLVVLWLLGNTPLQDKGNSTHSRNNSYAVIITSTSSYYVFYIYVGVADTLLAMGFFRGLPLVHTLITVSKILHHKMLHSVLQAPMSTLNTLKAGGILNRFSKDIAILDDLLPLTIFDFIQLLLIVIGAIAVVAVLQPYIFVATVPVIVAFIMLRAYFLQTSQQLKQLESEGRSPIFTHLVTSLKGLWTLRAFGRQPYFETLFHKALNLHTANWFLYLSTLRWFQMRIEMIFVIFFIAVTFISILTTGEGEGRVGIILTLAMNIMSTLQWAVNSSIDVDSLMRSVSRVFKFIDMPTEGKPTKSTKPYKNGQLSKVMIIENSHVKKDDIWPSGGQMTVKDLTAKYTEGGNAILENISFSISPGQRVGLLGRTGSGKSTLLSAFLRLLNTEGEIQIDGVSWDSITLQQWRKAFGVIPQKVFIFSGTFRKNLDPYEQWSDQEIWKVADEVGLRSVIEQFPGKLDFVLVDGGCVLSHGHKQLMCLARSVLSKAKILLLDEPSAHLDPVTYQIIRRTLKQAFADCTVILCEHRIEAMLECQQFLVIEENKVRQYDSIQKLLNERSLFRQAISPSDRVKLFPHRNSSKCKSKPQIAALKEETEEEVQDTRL

Row | EC50 (CFTR G551D mutant) [nM] | EC50 (CFTR ΔF508 mutant [1]) [nM] | EC50 (CFTR ΔF508 mutant [2]) [nM] | Structure (SMILES)
1 | 258 | 98.2 | 29.7 | CCc1cc(C(=O)Nc2sc(S(=O)(=O)N3CCC(F)(F)CC3)cc2C(N)=O)n[nH]1 [Compound 141, N-(3-carbamoyl-5-(4,4-difluoropiperidin-1-ylsulfonyl)thiophen-2-yl)-5-ethyl-1H-pyrazole-3-carboxamide]
2 | 536 | 294 | 70.7 | CC(C)(C)c1cc(C(=O)Nc2sc(S(=O)(=O)N3CCC(F)(F)CC3)cc2C(N)=O)n[nH]1 [Compound 142, 5-tert-butyl-N-(3-carbamoyl-5-(4,4-difluoropiperidin-1-ylsulfonyl)thiophen-2-yl)-1H-pyrazole-3-carboxamide]
3 | 232 | 27.2 | 29.2 | NC(=O)c1cc(S(=O)(=O)N2CCOCC2)sc1NC(=O)c1ccccc1O [Compound 143, 2-(2-Hydroxy-benzoylamino)-5-(morpholine-4-sulfonyl)-thiophene-3-carboxylic acid amide]
4 | 215 | 71 | 19.5 | CN(Cc1ccc(F)cc1)S(=O)(=O)c1cc(C(N)=O)c(NC(=O)c2cc[nH]n2)s1 [Compound 145, 1H-Pyrazole-3-carboxylic acid {3-carbamoyl-5-[(4-fluoro-benzyl)-methyl-sulfamoyl]-thiophen-2-yl}-amide]
5 | 241 | 60.9 | 86.5 | COCCN(CC(F)(F)F)S(=O)(=O)c1cc(C(N)=O)c(NC(=O)c2ccccc2F)s1 [Compound 157, 2-(2-fluorobenzamido)-5-(N-(2-methoxyethyl)-N-(2,2,2-trifluoroethy)sulfamoyl) thiophene-3-carboxamide]
6 | 136 | 42 | 15.4 | CN(Cc1ccc(F)cc1F)S(=O)(=O)c1cc(C(N)=O)c(NC(=O)c2cc[nH]n2)s1 [Compound 172, N-(3-carbamoyl-5-(N-(2,4-difluorobenzyl)-N-methylsulfamoyl)thiophen-2-yl)-1H-pyrazole-3-carboxamide]
7 | 278 | 83.3 | 73.9 | NC(=O)c1cc(S(=O)(=O)N2CCC(F)(F)CC2)sc1NC(=O)c1ccccc1O [Compound 190, 5-(4,4-difluoropiperidin-1-ylsulfonyl)-2-(2-hydroxybenzamido)thiophene-3-carboxamide]
8 | 245 | 197 | 90 | NC(=O)c1cc(S(=O)(=O)N(Cc2ccc(F)cc2)C2CC2)sc1NC(=O)c1cc[nH]n1 [Compound 191, N-(3-carbamoyl-5-(N-cyclopropyl-N-(4-fluorobenzyl)sulfamoyl)thiophen-2-yl)-1H-pyrazole-3-carboxamide]
9 | 206 | 49.5 | 114 | CN(CC1CC1)S(=O)(=O)c1cc(C(N)=O)c(NC(=O)c2cc[nH]n2)s1 [Compound 193, N-(3-carbamoyl-5-(N-(cyclopropylmethyl)-N-methylsulfamoyl)thiophen-2-yl)-1H-pyrazole-3-carboxamide]
10 | 158 | 24.8 | 91 | CC(C)S(=O)(=O)c1cc(C(N)=O)c(NC(=O)c2ccccc2O)s1 [Compound 197, 2-(2-hydroxybenzaido)-5-(isopropylsulfonyl) thiophene-3-carboxamide]
11 | 136 | 20.2 | 97.2 | NC(=O)c1cc(S(=O)(=O)N2CCOCC2)sc1NC(=O)c1ccc(F)cc1O [Compound 198, 2-(4-fluoro-2-hydroxybenzamido)-5-(morpholinosulfonyl)thiophene-3-carboxamide]
12 | 470 | 13.4 | 73.5 | CC(C)N(C)S(=O)(=O)c1cc(C(N)=O)c(NC(=O)c2cc[nH]n2)s1 [Compound 210, N-(3-carbamoyl-5-(N-isopropyl-N-methylsulfamoyl)thiophen-2-yl)-1H-pyrazole-3-carboxamide]
